How the values were obtained:
Test in all cases: CDK Kinase Inhibition Assay
[1] = molecular target: Cyclin-dependent kinase 2/G1/S-specific cyclin-E1 (Homo sapiens, UniProt P24941)
Description: (§1) In vitro CDK assay using purified enzyme, was incubated at room temperature with substrate, and test compounds in the presence of ATP/[gamma-33P]ATP. 33P incorporation was measured with a Top Count (Packard). IC50 is the inhibitor concentration which inhibits 50% of kinase activity that catalyzes the transfer of the terminal phosphate from 33P labeled ATP to the substrate.

[2] = molecular target: Cyclin-dependent kinase/G2/mitotic-specific cyclin- 1 (Homo sapiens, UniProt P06493); conditions: 25 °C
Cyclin-dependent kinase/G2/mitotic-specific cyclin- 1, sequence (P06493 whole entry): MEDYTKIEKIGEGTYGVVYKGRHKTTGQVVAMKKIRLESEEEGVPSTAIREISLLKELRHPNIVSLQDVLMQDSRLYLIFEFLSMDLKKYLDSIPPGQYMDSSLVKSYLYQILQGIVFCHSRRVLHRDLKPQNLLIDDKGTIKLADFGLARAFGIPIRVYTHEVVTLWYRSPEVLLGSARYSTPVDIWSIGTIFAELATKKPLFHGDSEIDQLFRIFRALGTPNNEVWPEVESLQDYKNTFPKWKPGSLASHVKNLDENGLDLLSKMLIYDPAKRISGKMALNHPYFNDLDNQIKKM
Cyclin-dependent kinase/G2/mitotic-specific cyclin- 1, sequence (P14635 whole entry, further chain): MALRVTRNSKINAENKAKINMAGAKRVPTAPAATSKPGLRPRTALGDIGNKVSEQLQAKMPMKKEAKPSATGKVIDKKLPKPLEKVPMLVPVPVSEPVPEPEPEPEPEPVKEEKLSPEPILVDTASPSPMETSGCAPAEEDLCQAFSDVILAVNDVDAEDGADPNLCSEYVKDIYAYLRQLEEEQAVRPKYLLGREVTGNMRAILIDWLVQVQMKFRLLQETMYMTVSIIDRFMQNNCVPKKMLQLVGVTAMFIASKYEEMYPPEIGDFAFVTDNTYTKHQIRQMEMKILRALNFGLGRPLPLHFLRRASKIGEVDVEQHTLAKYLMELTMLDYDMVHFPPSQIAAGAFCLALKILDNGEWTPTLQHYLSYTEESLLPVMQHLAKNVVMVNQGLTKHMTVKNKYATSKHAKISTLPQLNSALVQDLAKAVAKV
Description: as §1

[3] = molecular target: Cyclin-dependent kinase 4/G1/S-specific cyclin-D1 (Homo sapiens, UniProt P11802); conditions: 25 °C
Cyclin-dependent kinase 4/G1/S-specific cyclin-D1, sequence (P11802 whole entry): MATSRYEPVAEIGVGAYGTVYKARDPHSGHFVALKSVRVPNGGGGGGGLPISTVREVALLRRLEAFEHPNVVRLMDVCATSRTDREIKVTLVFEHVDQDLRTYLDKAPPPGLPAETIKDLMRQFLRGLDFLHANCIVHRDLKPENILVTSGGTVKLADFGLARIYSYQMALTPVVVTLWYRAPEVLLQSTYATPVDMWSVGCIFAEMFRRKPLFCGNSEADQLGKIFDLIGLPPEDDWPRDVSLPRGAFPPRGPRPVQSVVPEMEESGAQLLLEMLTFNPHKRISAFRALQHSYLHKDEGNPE
Cyclin-dependent kinase 4/G1/S-specific cyclin-D1, sequence (P24385 whole entry, further chain): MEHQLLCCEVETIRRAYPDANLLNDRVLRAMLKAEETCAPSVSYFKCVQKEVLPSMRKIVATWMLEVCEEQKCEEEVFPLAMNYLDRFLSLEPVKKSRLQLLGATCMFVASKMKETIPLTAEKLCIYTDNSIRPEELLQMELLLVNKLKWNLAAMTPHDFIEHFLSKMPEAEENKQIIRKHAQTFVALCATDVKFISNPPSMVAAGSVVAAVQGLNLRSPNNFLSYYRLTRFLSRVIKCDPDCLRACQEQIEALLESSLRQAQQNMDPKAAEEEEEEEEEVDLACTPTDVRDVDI
Description: as §1

Compound | IC50 ([1]; 25 °C) | IC50 [2] | IC50 [3] | IC50 ([1]; pH 7, 22 °C)
CCN(CC)CCOc1cc(F)c(C(=O)c2c(N)nc3ccc(C(=O)c4c(Cl)cccc4Cl)cn23)c(F)c1 [6-[(2,6-dichlorophenyl)carbonyl]-3-({4-[2-(diethylamino)ethoxy]-2,6-difluorophenyl}carbonyl)imidazo[1,2-a]pyridin-2-amine] | 984 nM |  |  | 
N#C/C=C(\c1ccc2nc(N)c(C(=O)c3c(F)cccc3F)n2c1)c1c(F)cccc1F [(2E)-3-{2-amino-3-[(2,6-difluorophenyl)carbonyl]imidazo[1,2-a]pyridin-6-yl}-3-(2,6-difluorophenyl)prop-2-enenitrile] |  | 53 nM | 1550 nM | 160 nM
N#C/C=C(/c1ccc2nc(N)c(C(=O)c3c(F)cccc3F)n2c1)c1c(F)cccc1F [(2Z)-3-{2-amino-3-[(2,6-difluorophenyl)carbonyl]imidazo[1,2-a]pyridin-6-yl}-3-(2,6-difluorophenyl)prop-2-enenitrile] | 896 nM |  |  | 
